Earlier results as cited in US20230201369A1 (THE TEXAS A&M UNIVERSITY SYSTEM, priority 2020, published 2023).

Details: estimated

For `C=CCN1CC[C@]23c4c5ccc(O)c4O[C@H]2C(=O)CC[C@@]3(O)[C@H]1C5` [naloxone, 17-Allyl-4,5α-epoxy-3,14-dihydroxymorphinan-6-one], the oral bioavailability is listed as 0.9-2%.
